The values that follow are results of earlier work, collected in patent US20230172920A1, “DOSING REGIMEN FOR TREATING A DISEASE MODULATED BY CSF-1R” (Novartis AG, priority 2020, published 2023).

Like-named read-outs stand apart in the source and are kept apart here.

For data set [1] the following is noted: cited from earlier work.
For data set [2] the following is noted: Phase 2b/3 clinical trial; cited from earlier work.

As for `FC(F)(F)c1ccc(CNc2ccc(Cc3c[nH]c4ncc(Cl)cc34)cn2)cn1` [PLX3397, reference compound], in data set [1] (literature reports), the “serum enzyme increases in clinical trials” value (“serum enzyme increases” for short) is “Asymptomatic serum enzyme increases”.

Take `Cc1ccc(NC(=O)c2ccc(CN3CCN(C)CC3)cc2)cc1Nc1nc(-c2cccnc2)cs1` [masitinib]: the “disease progression in patients with ALS” value in data set [2] is given as “significant delay of disease progression”.

Turning to “FPA008: monoclonal antibody against CSF-1R”, in data set [1] (human, in vivo), the “serum enzyme increases” value is on record as “Asymptomatic serum enzyme increases”.

B1: MCS110: monoclonal antibody against CSF-1 ligand (antibody, chains of the INN, looked up, V domains shown)
VH: QVQLQESGPGLVKPSQTLSLTCTVSDYSITSDYAWNWIRQFPGKGLEWMGYISYSGSTSYNPSLKSRITISRDTSKNQFSLQLNSVTAADTAVYYCASFDYAHAMDYWGQGTTVTVSS
VL: DIVLTQSPAFLSVTPGEKVTFTCQASQSIGTSIHWYQQKTDQAPKLLIKYASESISGIPSRFSGSGSGTDFTLTISSVEAEDAADYYCQQINSWPTTFGGGTKLEIK
On to B1, for which the “serum enzyme increases” value in data set [1] (human, in vivo) is on record as “Asymptomatic serum enzyme increases”.
